Test results: ChEMBL document CHEMBL1144970, “Protective effects of steroid saponins from Paris polyphylla var. yunnanensis on ethanol- or indomethacin-induced gastric mucosal lesions in rats: structural requirement for activity and mode of action” (Bioorg Med Chem Lett, 2003)
Blank lines part the entries; values can stand above or below the compound they belong to.

Columns and labels:
[1] = test system: Rattus norvegicus; assay: Percent inhibition of gastric lesions induced by endomethacin was measured, after administration of 2.5 mg/kg po in rats; assay type: functional; details: Stomach
[2] = test system: Rattus norvegicus; assay: Percent inhibition of gastric lesions induced by endomethacin was measured, after administration of 7.5 mg/kg po in rats; assay type: functional; details: Stomach
[3] = test system: Rattus norvegicus; assay: Reduction in length (control value = 59.8+/-6) of gastric lesions induced by endomethacin was measured, after administration of 7.5 mg/kg po in rats; assay type: functional, Stomach
[4] = test system: Rattus norvegicus; assay: Percent inhibition of gastric lesions induced by ethanol was measured, after administration of 10 mg/kg po in rats; assay type: functional; details: Stomach
[5] = test system: Rattus norvegicus; assay: Reduction in length (control value = 159.2+/-21) of gastric lesions induced by ethanol was measured, after administration of 15 mg/kg po in rats; assay type: functional, Stomach
[6] = test system: Rattus norvegicus; assay: Volume of the gastric juice (Control value = 4.7+/-0.4) of stomach content of pylorus ligated rats was measured (20 mg/kg po of the Compound was administered 1 hr before the pylorus ligation); assay type: functional
[7] = test system: Rattus norvegicus; assay: Volume of the gastric juice (Control value = 4.7+/-0.4) of stomach content of pylorus ligated rats was measured (10 mg/kg po of the Compound was administered 1 hr before the pylorus ligation); assay type: functional
[8] = test system: Rattus norvegicus; assay: Volume of the gastric juice (Control value = 4.7+/-0.4) of stomach content of pylorus ligated rats was measured (5 mg/kg po of the Compound was administered 1 hr before the pylorus ligation); assay type: functional
[9] = test system: Rattus norvegicus; assay: pH of the gastric juice (Control value = 1.42+/-0.02) of stomach content of pylorus ligated rats was measured (5 mg/kg po of the Compound was administered 1 hr before the pylorus ligation); assay type: ADME, organism-based; details: in vivo
[10] = test system: Rattus norvegicus; assay: Percent inhibition of gastric lesions induced by endomethacin was measured, after administration of 10 mg/kg po in rats; assay type: functional; details: Stomach
[11] = test system: Rattus norvegicus; assay: Reduction in length (control value = 59.8+/-6) of gastric lesions induced by endomethacin was measured, after administration of 2.5 mg/kg po in rats; assay type: functional, Stomach
[12] = test system: Rattus norvegicus; assay: Acid output from the stomach (control value = 120.3+/-19.7) in pylorus ligated rats (20 mg/kg po of the Compound was administered 1 hr before the pylorus ligation); assay type: functional
[13] = test system: Rattus norvegicus; assay: pH of the gastric juice (Control value = 1.42+/-0.02) of stomach content of pylorus ligated rats was measured (10 mg/kg po of the Compound was administered 1 hr before the pylorus ligation); assay type: ADME, organism-based; details: in vivo
[14] = test system: Rattus norvegicus; assay: Reduction in length (control value = 159.2+/-21) of gastric lesions induced by endomethacin was measured, after administration of 20 mg/kg po in rats; assay type: functional, Stomach
[15] = test system: Rattus norvegicus; assay: Reduction in length (control value = 159.2+/-21) of gastric lesions induced by ethanol was measured, after administration of 10 mg/kg po in rats; assay type: functional, Stomach
[16] = test system: Rattus norvegicus; assay: Percent inhibition of gastric lesions induced by ethanol was measured, after administration of 15 mg/kg po in rats; assay type: functional; details: Stomach
[17] = test system: Rattus norvegicus; assay: Reduction in length (control value = 59.8+/-6) of gastric lesions induced by endomethacin was measured, after administration of 5 mg/kg po in rats; assay type: functional, Stomach
[18] = test system: Rattus norvegicus; assay: Percent inhibition of gastric lesions induced by endomethacin was measured, after administration of 5 mg/kg po in rats; assay type: functional; details: Stomach
[19] = test system: Rattus norvegicus; assay: Acid output from the stomach (control value = 120.3+/-19.7) in pylorus ligated rats (5 mg/kg po of the Compound was administered 1 hr before the pylorus ligation); assay type: functional
[20] = test system: Rattus norvegicus; assay: pH of the gastric juice (Control value = 1.42+/-0.02) of stomach content of pylorus ligated rats was measured (20 mg/kg po of the Compound was administered 1 hr before the pylorus ligation); assay type: ADME, organism-based; details: in vivo
[21] = test system: Rattus norvegicus; assay: Percent inhibition of gastric lesions induced by ethanol was measured, after administration of 20 mg/kg po in rats; assay type: functional; details: Stomach
[22] = test system: Rattus norvegicus; assay: Acid output from the stomach (control value = 120.3+/-19.7) in pylorus ligated rats (10 mg/kg po of the Compound was administered 1 hr before the pylorus ligation); assay type: functional
[23] = test system: Rattus norvegicus; assay: Reduction in length (control value = 126+/-9.1) of gastric lesions induced by ethanol was measured, after administration of 2.5 mg/kg po in rats; assay type: functional, Stomach
[24] = test system: Rattus norvegicus; assay: Percent inhibition of gastric lesions induced by ethanol was measured, after administration of 5 mg/kg po in rats; assay type: functional; details: Stomach
[25] = test system: Rattus norvegicus; assay: Reduction in length ((control value = 126+/-9.1) of gastric lesions induced by ethanol was measured, after administration of 5 mg/kg po in rats; assay type: functional, Stomach
[26] = test system: Rattus norvegicus; assay: Percent inhibition of gastric lesions induced by ethanol was measured, after administration of 2.5 mg/kg po in rats; assay type: functional; details: Stomach

pH [9]: 1.63
pH [13]: 1.8
pH [20]: 5.54
SMILES: COc1ccc2[nH]c([S+]([O-])Cc3ncc(C)c(OC)c3C)nc2c1 (stereo unspecified) [OMEPRAZOLE]
inhibition in vivo at 2.5 mg/kg [1]: 42.5%
inhibition in vivo at 7.5 mg/kg [2]: 86.6%
Length [3]: 8 mm
inhibition in vivo at 10 mg/kg [4]: 43.1%
Length [5]: 28.6 mm
Volume [6]: 2.2 ml 4hr-1
Volume [7]: 2.5 ml 4hr-1
Volume [8]: 3.3 ml 4hr-1
inhibition in vivo at 10 mg/kg [10]: 98.2%
Length [11]: 34.4 mm
Acid output [12]: 14.6 u equiv hr-1
Length [14]: 16.9 mm
Length [15]: 90.6 mm
inhibition in vivo at 15 mg/kg [16]: 82%
Length [17]: 24.6 mm
inhibition in vivo at 5 mg/kg [18]: 58.9%
Acid output [19]: 62.6 u equiv hr-1
inhibition in vivo at 20 mg/kg [21]: 89.4%
Acid output [22]: 46.8 u equiv hr-1

SMILES: C[C@@H](CC[C@@]1(O)O[C@H]2C[C@H]3[C@@H]4CC=C5C[C@@H](O[C@@H]6O[C@H](CO)[C@@H](O)[C@H](O[C@@H]7O[C@H](CO)[C@@H](O)[C@H](O)[C@H]7O)[C@H]6O[C@@H]6O[C@@H](C)[C@H](O)[C@@H](O)[C@H]6O)CC[C@]5(C)[C@H]4CC[C@]3(C)[C@H]2[C@@H]1C)CO[C@@H]1O[C@H](CO)[C@@H](O)[C@H](O)[C@H]1O [PROTOGRACILLIN]
Length [23]: 115 mm
inhibition in vivo at 5 mg/kg [24]: 14.1%
Length [25]: 108 mm
inhibition in vivo at 2.5 mg/kg [26]: 8.5%
